The subject of series [1] is L. donovani axenic amastigotes. Briefly: L. donovani axenic amastigote proliferation, colorimetric assay. The format is cell-based, Leishmania donovani. As to conditions: for activity in the axenic amastigote L. donovani assay (in words): screening / confirmation; for IC50: Leishmania donovani, L. donovani axenic amastigotes. As for the experimental part: As part of an ongoing search for potential treatments for leishmaniasis, a screening campaign against available compounds was conducted using axenic amastigotes of Leishmania donovani, a protozoan that is known to cause visceral leishmaniasis (VL). […] Prior to taking on the development of novel analogs, we sought to synthesize an analog to confirm that the activity was readily reproducible. […] As a byproduct, compound 2a, which arose from the hydrolysis of the product amide to the corresponding carboxylic acid (not shown) was also isolated and evaluated (vide infra).
(§1) With a source of these compounds in hand, their activity against Leishmania donovani cells was evaluated in two different assays. L. donovani axenic amastigotes were generated from promastigotes and maintained in an appropriate medium such that their proliferation could be evaluated using a colorimetric assay. Additionally, macrophages were plated into a 96-well plate and a medium containing L. donovani was added and allowed to infect the macrophage cells. Subsequent addition of the compound to be evaluated was added to the wells prior to incubation and evaluation. Finally, a counterscreen for cytotoxicity was conducted using a J774 murine mouse cell line.

The test system of series [2] is L. donovani infected macrophage cells. The experiment in a line: L. donovani infected macrophage assay. The format is cell-based. Conditions: Leishmania donovani, macrophages infected with L. donovani. As to the method: as §1
Series [3] can be described thus: Counterscreen for cytotoxicity. The format is cell-based. As to conditions: mouse, J774 cells (murine macrophage cell line). As for the experimental part:
as §1
For orientation: Counterscreens check selectivity or assay interference.

From US9737509B1, “Antimicrobial compositions, methods of use, and methods of treatment of infections” (University of South Florida, priority 2015, dated 2017) come the findings set out here.

In brackets after ≈: the same amount, converted by molar mass. Where only a bound is given, the exact number is not on record here.

With `Cc1nn(-c2ccc(C(N)=O)c(N[C@H]3CC[C@H](O)CC3)c2)c2c1C(=O)CC(C)(C)C2` [Compound 1, reference compound], the “activity in the axenic amastigote L. donovani assay (in words)” value in series [1] is recorded as “most active”.

Usually IC50 stands for the concentration needed to halve the response being measured. For `COCCCNc1cc(-n2nc(C)c3c2CC(C)(C)CC3=O)ccc1C(N)=O` [Compound 2], the IC50 in series [1] amounted to 0.646 µg/mL (≈ 1.68 µM); in series [2], 0.879 µg/mL (≈ 2.29 µM); in series [3] it was 3.52 µg/mL (≈ 9.16 µM). In series [1], the “activity in the axenic amastigote L. donovani assay (in words)” value is “equally active as 1”.

In the case of `COCCCNc1cc(-n2nc(C)c3c2CN(Cc2ccccc2)CC3=O)ccc1C(N)=O` [Compound 3a], the IC50 was 2.29 µg/mL (≈ 5.11 µM) in series [1], 6.33 µg/mL (≈ 14.1 µM) in series [2] and over 50 µg/mL in series [3].

Take `COCCCNc1cc(-n2nc(C)c3c2CNCC3=O)ccc1C(N)=O` [Compound 3b]: the IC50 is 3.9 µg/mL (≈ 10.9 µM) in series [1], over 10 µg/mL in series [2] and over 50 µg/mL in series [3].

As for `COCCCNc1cc(-n2nc(C)c3c2CN(C(C)=O)CC3=O)ccc1C(N)=O` [Compound 3c], the IC50 was 13.9 µg/mL (≈ 34.8 µM) in series [1], 1.06 µg/mL (≈ 2.65 µM) in series [2] and over 50 µg/mL in series [3].

Turning to `CCC(=O)N1CC(=O)c2c(C)nn(-c3ccc(C(N)=O)c(NCCCOC)c3)c2C1` [Compound 3d], the figures for the IC50 in series [1], in series [2] and in series [3] were 6.42 µg/mL (≈ 15.5 µM), 3.54 µg/mL (≈ 8.55 µM) and over 50 µg/mL, respectively.

As for `COCCCNc1cc(-n2nc(C)c3c2CN(C(=O)C(C)C)CC3=O)ccc1C(N)=O` [Compound 3e], the IC50 in series [1] was 1.9 µg/mL (≈ 4.45 µM); in series [2], 3.54 µg/mL (≈ 8.28 µM); in series [3], 37.3 µg/mL (≈ 87.3 µM).

On to `COCCCNc1cc(-n2nc(C)c3c2CN(C(=O)COC)CC3=O)ccc1C(N)=O` [Compound 3f], for which the IC50 in series [1] is 4.45 µg/mL (≈ 10.4 µM); in series [2] it was 3.57 µg/mL (≈ 8.31 µM); in series [3], over 50 µg/mL.

For `COCCCNc1cc(-n2nc(C)c3c2CN(C(=O)C2CCCC2)CC3=O)ccc1C(N)=O` [Compound 3g], the IC50 in series [1] is 2.99 µg/mL (≈ 6.59 µM); in series [2], 1.52 µg/mL (≈ 3.36 µM); in series [3] it was over 50 µg/mL.

With `COCCCNc1cc(-n2nc(C)c3c2CN(C(=O)c2ccc(C)cc2)CC3=O)ccc1C(N)=O` [Compound 3h], the figures for the IC50 in series [1], in series [2] and in series [3] were 2.6 µg/mL (≈ 5.48 µM), 1.75 µg/mL (≈ 3.69 µM) and 26.3 µg/mL (≈ 55.3 µM), respectively.

Regarding `COCCCNc1cc(-n2nc(C)c3c2CN(S(C)(=O)=O)CC3=O)ccc1C(N)=O` [Compound 3i], the IC50 in series [1] was over 20 µg/mL; in series [2] it was over 5.38 µg/mL; in series [3] it was 25.5 µg/mL (≈ 58.6 µM).

Take `COCCCNc1cc(-n2nc(C)c3c2CN(C(=O)NCc2ccccc2)CC3=O)ccc1C(N)=O` [Compound 3j]: the IC50 in series [1] was over 20 µg/mL; in series [2], over 10 µg/mL; in series [3] it was over 50 µg/mL.

Take `COCCCNc1cc(-n2nc(C)c3c2CN(C(N)=O)CC3=O)ccc1C(N)=O` [Compound 3k]: the IC50 in series [1] is over 20 µg/mL; in series [2] it was over 10 µg/mL; in series [3], over 50 µg/mL.

As for `COCCCNc1cc(NC2CC(C)(C)Cc3ncccc32)ccc1C(N)=O` (centres unmarked) [Compound 6], the IC50 in series [1] is 2.55 µg/mL (≈ 6.67 µM); in series [2] it was 5.38 µg/mL (≈ 14.1 µM); in series [3], 6.75 µg/mL (≈ 17.6 µM).

Consider `Cc1nn(-c2ccc3c(N)ncnc3c2)c2c1C(=O)CC(C)(C)C2` [Compound 9c], for which the IC50 is 2.42 µg/mL (≈ 7.53 µM) in series [1], 1.33 µg/mL (≈ 4.15 µM) in series [2] and over 50 µg/mL in series [3].

With `COCCCNc1cc(-n2nc(C)c3c2CCCC3=O)ccc1C(N)=O` [Compound 10], the IC50 in series [1] stood at 2.65 µg/mL (≈ 7.45 µM); in series [2] it was 0.65 µg/mL (≈ 1.82 µM); in series [3], 12.6 µg/mL (≈ 35.2 µM).
